In brackets after ≈: the same amount, converted by molar mass. *1 amine or outer side, *2 acyl side, *3 side chain or, on linkers, in order; H or OH if unused. Where a SMILES comes first, the peptide text is derived from it. [ ]: non-standard residue; d: D form. The star is where a group is joined. X2 = CCC(=O)C[C@@H](O)C[C@@H](C)C[C@H](N[*:1])C(=O)[*:2]; X1 = CCC(=O)/C=C/C[C@@H](C)C[C@H](N[*:1])C(=O)[*:2]; Alaψ(CH2NMeCH2CH2OH) = C[C@@H](CN(C)CCO)N*; Decanoyl(2R-Me) = CCCCCCCC[C@@H](C)C(=O)*; Aib = CC(C)(N)C(=O)O
Key:
Assay type in all cases: functional
[1] = tested on: Mycolicibacterium smegmatis; test: Antimycobacterial activity against Mycobacterium smegmatis under aerobic condition
[2] = tested on: Mycolicibacterium smegmatis; test: Antimycobacterial activity against Mycobacterium smegmatis under dormancy-inducing hypoxic condition
[3] = tested on: Mycobacterium tuberculosis; test: Antimycobacterial activity against Mycobacterium tuberculosis H37Rv under aerobic condition
[4] = tested on: Mycobacterium tuberculosis; test: Antimycobacterial activity against Mycobacterium tuberculosis H37Rv under dormancy-inducing hypoxic condition

CCCCCCCC[C@@H](C)C(=O)N1CCC[C@H]1C(=O)N[C@@H](C[C@H](C)C[C@H](O)CC(=O)CC)C(=O)NC(C)(C)C(=O)NC(C)(C)C(=O)N[C@H](C(=O)N[C@H](C(=O)NC(C)(C)C(=O)NC(C)(C)C(=O)N[C@@H](C)CN(C)CCO)C(C)C)C(C)C [TRICHODERIN B] ({Decanoyl(2R-Me)}-P[X2][Aib][Aib]VV[Aib][Aib]-{Alaψ(CH2NMeCH2CH2OH)})
MIC [1]: 0.63 µg/mL (≈ 0.548 µM)
MIC [2]: 0.63 µg/mL (≈ 0.548 µM)
MIC [3]: 0.13 µg/mL (≈ 0.113 µM)
MIC [4]: 0.13 µg/mL (≈ 0.113 µM)

CCCCCCCC[C@@H](C)C(=O)N1CCC[C@H]1C(=O)N[C@@H](C[C@H](C)C/C=C/C(=O)CC)C(=O)NC(C)(C)C(=O)NC(C)(C)C(=O)N[C@H](C(=O)N[C@H](C(=O)NC(C)(C)C(=O)NC(C)(C)C(=O)N[C@@H](C)CN(C)CCO)C(C)C)[C@@H](C)CC [TRICHODERIN A1] ({Decanoyl(2R-Me)}-P[X1][Aib][Aib]IV[Aib][Aib]-{Alaψ(CH2NMeCH2CH2OH)})
MIC [1]: 1.56 µg/mL (≈ 1.36 µM)
MIC [2]: 1.56 µg/mL (≈ 1.36 µM)
MIC [3]: 2 µg/mL (≈ 1.75 µM)
MIC [4]: 2 µg/mL (≈ 1.75 µM)

NNC(=O)c1ccncc1 [ISONIAZID]
MIC [1]: 2.5 µg/mL (≈ 18.2 µM)
MIC [2]: 25 µg/mL (≈ 182 µM)
MIC [3]: 0.05 µg/mL (≈ 0.365 µM)
MIC [4]: > 100 µg/mL

CCCCCCCC[C@@H](C)C(=O)N1CCC[C@H]1C(=O)N[C@@H](C[C@H](C)C[C@H](O)CC(=O)CC)C(=O)NC(C)(C)C(=O)NC(C)(C)C(=O)N[C@H](C(=O)N[C@H](C(=O)NC(C)(C)C(=O)NC(C)(C)C(=O)N[C@@H](C)CN(C)CCO)C(C)C)[C@@H](C)CC [TRICHODERIN A] ({Decanoyl(2R-Me)}-P[X2][Aib][Aib]IV[Aib][Aib]-{Alaψ(CH2NMeCH2CH2OH)})
MIC [1]: 0.1 µg/mL (≈ 0.0859 µM)
MIC [2]: 0.1 µg/mL (≈ 0.0859 µM)
MIC [3]: 0.12 µg/mL (≈ 0.103 µM)
MIC [4]: 0.12 µg/mL (≈ 0.103 µM)

Source: ChEMBL document CHEMBL1158611, “Trichoderins, novel aminolipopeptides from a marine sponge-derived Trichoderma sp., are active against dormant mycobacteria” (2010)
